In general, IC50 refers to the midpoint of a concentration-inhibition curve.

Series [1] concerns Caco-2 cells. Description: Glucose. In kind it is cell-based, human. Particulars: 1 h preincubation.
In series [2] the test system is Caco-2 cells. The series is described as follows: MTT cytotoxicity assay in Caco-2 cells. The settings on record: 24 h. (Tetrazolium assays rely on reduction of a dye to a coloured formazan, in cell work by metabolically active cells.)
Series [3] relates to Caco-2 cells. Description: C1-BODIPY-C12 fatty acid uptake inhibition in Caco-2 cells. In kind it is cell-based, human. The settings on record: for IC50: Homo sapiens, Caco-2, read-out: Caco-2 IC50; for % Transport Standard Assay: compound 40 μM, Caco-2 cells, % of no-compound control, mean ± SD. A general note: Caco-2 monolayers are a common model of the intestinal barrier.
For series [4], the system named is Caco-2 cells. Description: Reversibility of fatty acid uptake inhibition after 24 h recovery. In kind it is cell-based, human. The settings on record: compound 40 μM for 1 h, washed, mean ± SD.
The next series relates to HepG2 cells. Description: C1-BODIPY-C12 fatty acid uptake inhibition in HepG2 cells. The settings on record: Homo sapiens, HepG2, read-out: HepG2 IC50. The class given is cell-based.
In series [5] the test system is long chain acyl-CoA synthetase (Acsl). The series is described as follows: Oleoyl-CoA synthetase. Particulars: Caco-2 cells pretreated 1 h; for Oleoyl CoA synthetase activity after compound treatment: rinsed, total cell extracts. The class given is biochemical, human.
The next series concerns 3T3-L1 adipocytes. The series is described as follows: C1-BODIPY-C12 fatty acid uptake inhibition in 3T3-L1 adipocytes. Particulars: Mus musculus, 3T3-L1, read-out: 3T3-L1 Adipocytes IC50. The class given is cell-based.
[6] abbreviates: 50 μM, Caco-2 cells (10 times the IC50 dosage).

As to `COc1cc(/C=C2/SC(=S)N(c3cccc(Cl)c3)C2=O)cc(Br)c1O` [CB-2, (5E)-5-[(3-bromo-4-hydroxy-5-methoxyphenyl)methylene]-3-(3-chlorophenyl)-2-thioxothiazolidin-4-one], the 2-NBDG glucose transport result in the series with Caco-2 cells [1] (20 μM) was “not affected”. In addition, in the series on Caco-2 cells [2] (setting [6]), the “Cellular toxicity (MTT assay)” value is reported as “not toxic”. The figures for the IC50 with Caco-2 cells [3], with HepG2 cells and in the series on 3T3-L1 adipocytes were 3.99 ± 0.32 µM, 7.55 ± 1.23 µM and 231 ± 33.5 µM, respectively. The “% Transport Standard Assay” value with Caco-2 cells [3] was 46 ± 3%. In addition, the “% Transport after 24 Hour Recovery” value with Caco-2 cells [4] is 93 ±13%. In addition, in series [5] (50 μM (10 times the IC50), cell extracts), the “Inhibition of oleoyl CoA synthetase activity” value is reported as “about 50%”.

As to `O=c1cc(-c2ccc([N+](=O)[O-])cc2)nc2c(-c3ccc(Cl)cc3)c(Cc3ccccc3)[nH]n12` [CB-5, 2-benzyl-3-(4-chlorophenyl)-5-(4-nitrophenyl)-1H-pyrazolo[5,1-b]pyrimidin-7-one], the 2-NBDG glucose transport result with Caco-2 cells [1] (20 μM) was “not affected”. Besides, the “Cellular toxicity (MTT assay)” value with Caco-2 cells [2] (setting [6]) is listed as “not toxic”. Further, the IC50 in the series with Caco-2 cells [3] is 6.34 ± 0.93 µM; in the series with HepG2 cells, 10.2 ± 1.26 µM; in the series on 3T3-L1 adipocytes, 901 ± 205 µM. The “% Transport Standard Assay” value in the series with Caco-2 cells [3] is 54 ± 1%. The “% Transport after 24 Hour Recovery” value in the series on Caco-2 cells [4] is listed as 88 ±18%. Further, the “Oleoyl CoA synthetase activity after compound treatment” value in series [5] is listed as “not reduced”.

As for `Oc1c(C2=NCCNC(C(F)(F)F)=C2)ccc2ccccc12` [CB-6, 2-[7-(trifluoromethyl)-2,3-dihydro-1H-1,4-diazepin-5-yl]naphthalen-1-ol], in the series with Caco-2 cells [1] (20 μM), the 2-NBDG glucose transport entry was “not affected”. In addition, the “Cellular toxicity (MTT assay)” value with Caco-2 cells [2] (setting [6]) is “not toxic”. Also, the IC50 in the series on Caco-2 cells [3] stood at 4.93 ± 0.4 µM. The “% Transport after 24 Hour Recovery” value in the series with Caco-2 cells [4] is 74 ± 12%. Further, the “Oleoyl CoA synthetase activity after compound treatment” value in series [5] is given as “not reduced”.

In the case of `O=C1C=CC=CC1=C1NNC2(S1)C(=O)Nc1ccc(Br)cc12` (stereo not drawn) [CB-16, 5′-bromo-5-(6-oxocyclohexa-2,4-dien-1-ylidene)spiro[1,3,4-thiadiazolidine-2,3′-1H-indole]-2′-one], in the series with Caco-2 cells [1] (20 μM), the 2-NBDG glucose transport result was “not affected”. Further, the “Cellular toxicity (MTT assay)” value with Caco-2 cells [2] (setting [6]) is given as “not toxic”. Also, the IC50 in the series on Caco-2 cells [3] is 6.66 ± 0.64 µM. The “% Transport after 24 Hour Recovery” value in the series with Caco-2 cells [4] is on record as 99 ± 16%. For the same compound, the “Oleoyl CoA synthetase activity after compound treatment” value in series [5] is recorded as “not reduced”.

With `OCC(CCc1c[nH]c2ccccc12)c1c[nH]c2ccccc12` (stereo not drawn) [NCI-3, 2,4-bis(1H-indol-3-yl)butan-1-ol], the 2-NBDG glucose transport entry in the series with Caco-2 cells [1] (50 μM) is recorded as “reduced 2-NBDG transport slightly”. In addition, the “Cellular toxicity (MTT assay)” value with Caco-2 cells [2] (100 μM, Caco-2 cells) was “not toxic”. Further, the IC50 is 29.2 ± 3.64 µM in the series with Caco-2 cells [3], 84.1 ± 14.1 µM in the series on HepG2 cells and 143 ± 22.4 µM in the series on 3T3-L1 adipocytes. In addition, in the series with Caco-2 cells [3], the “% Transport Standard Assay” value is 52 ± 2%. The “Oleoyl CoA synthetase activity after compound treatment” value in series [5] is listed as “not reduced”.

Source of the values: paper PMC2814954 (Biochemical pharmacology, 2009).
